From US20130022629A1, “Modulators of Immunoinhibitory Receptor PD-1, and Methods of Use Thereof” (priority 2010, published 2013)
“Also recorded” adds a separate entry of the source.

Experiments:
[1] = molecular target: T1, PD-1 (Mus musculus, UniProt Q02242); assay: Primary screen: IFN-γ production by PD-1^C T cells with plate-bound anti-CD3 plus PD-L2Ig or control Ig; type: cell-based; details: compared with negative control wells on the plate (FIG. 2)
T1 construct: expressed in transfected cells; host or cells: CD4 T cells purified from spleens of PD-1^C transgenic mice (transgene-driven constitutive PD-1)
T1 sequence (Q02242 25-288): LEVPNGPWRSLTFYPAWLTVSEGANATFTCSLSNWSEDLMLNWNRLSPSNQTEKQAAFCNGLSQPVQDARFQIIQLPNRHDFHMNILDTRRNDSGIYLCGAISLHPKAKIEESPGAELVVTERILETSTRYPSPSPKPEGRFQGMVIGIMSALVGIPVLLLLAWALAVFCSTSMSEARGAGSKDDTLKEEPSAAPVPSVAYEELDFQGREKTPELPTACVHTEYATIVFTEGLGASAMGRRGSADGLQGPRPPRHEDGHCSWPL
Description: In certain embodiments, PD-1^C T cells are cultured with a proliferative stimulus (anti-CD3) plus either PD-L2-Ig or a negative control Ig fusion protein. PD-1^C T cells proliferate less and produce lower amounts of cytokines when cultured with PD-L2-Ig as compared to the negative control Ig fusion protein because PD-1-ligands deliver an inhibitory signal through PD-1. Compounds of interest will modulate this inhibitory interaction in wild type and PD-1^C T cells, but not in PD-1^−/− cells. Thus, compounds which are antagonists will block PD-1 inhibitory function and lead to increased T cell responses by wild type and PD-1^C T cells, but will not affect PD-1^−/− T cells. Conversely, compounds which are agonists will deliver an inhibitory signal, and reduce T cell responses by wild type and PD-1^C T cells, but not PD-1^−/− T cells.
Because it is believed that PD-1 can inhibit cytokine (IFN-γ) production to a greater extent than T cell proliferation in a number of situations (36, 44), in certain embodiments IFN-γ production was chosen as the readout, using a bead-based fluorescent ELISA assay. These beads have a broad dynamic range (about 1 pg/mL to about 5 ng/mL), robust detection of cytokines from complex solutions (including culture media), minimal time requirement (about 3 hours from start to finish), and homogeneous format (no washing required). […]

[2] = molecular target: T1, PD-1; assay: Validation (secondary screen): rescue of PD-1 mediated inhibition of IFN-γ production in PD-1^C (Tg) T cells; type: cell-based; details: PD-L2Ig versus control Ig (FIG. 3)
Source text: (§1) In vitro assays to test for compounds that interfere with the PD-1 function have been developed. These assays utilize unique mouse strains to specifically identify PD-1-specific effects. For example, a transgenic mouse that constitutively expresses PD-1 on T cells (PD-1^C) has been developed (43). It has recently been disclosed that PD-1^C T cells are very susceptible to signaling through PD-1, as measured by a decrease in T cell proliferation and cytokine production. These PD-1^C T cells can be used to assess the functional effects of small molecules. A PD-1 deficient mouse (PD-1^−/−) has also been developed (44), and T cells from such mice will serve as useful controls for in vitro as well as in vivo studies.
In certain embodiments, PD-1^C T cells are cultured with a proliferative stimulus (anti-CD3) plus either PD-L2-Ig or a negative control Ig fusion protein. […]
The specificity of the effects of sulfamonomethoxine and sulfamethizole were assessed by comparing responses of wild type, PD-1^c, and PD-1^−/− T cells. The effects of sulfamonomethoxine and sulfamethizole were evaluated over a range of compound concentrations (dilution series from 16 nM to 80 μM) and analyzed their effects on T cell proliferation and cytokine production. […]

[3] = tested on: PD-1^−/− T cells; assay: Specificity control: responses of PD-1^−/− (KO) T cells to compound; type: cell-based, mouse; details: PD-1^−/− T cells over the range of compound concentrations (FIG. 3)
Source text: as §1, with “studies. In certain embodiments, PD-1^C T cells are cultured with a proliferative stimulus (anti-CD3) plus either PD-L2-Ig or a negative control Ig fusion protein. […] The specificity of the effects of sulfamonomethoxine and sulfamethizole were assessed by comparing responses of wild type, PD-1^c, and PD-1^−/− T cells. The effects of sulfamonomethoxine and sulfamethizole were evaluated over a range of compound concentrations (dilution series from 16 nM to 80 μM) and analyzed their effects on T cell proliferation and cytokine production. […]” for “studies.”

Structure (SMILES)	rescue of IFN-γ production in the primary screen [1]	specificity: rescue/block of PD-1 mediated inhibition in PD-1 Tg cells [2]	effect on PD-1 KO T cells [3]
Cc1nnc(NS(=O)(=O)c2ccc(N)cc2)s1 [sulfamethizole]	rescue of IFN-γ production above the negative control wells	block of PD-1 mediated inhibition in PD-1 Tg cells only when PD-L2 was present; also recorded: rescue of PD-1 mediated inhibition in PD-1 Tg cells only when PD-L2 was present	no effect
COc1cc(NS(=O)(=O)c2ccc(N)cc2)ncn1 [sulfamonomethoxine]	rescue of IFN-γ production above the negative control wells	block of PD-1 mediated inhibition in PD-1 Tg cells only when PD-L2 was present; also recorded: rescue of PD-1 mediated inhibition in PD-1 Tg cells only when PD-L2 was present	no effect
